Here are results for four compounds from EP0307553B1, “Modified splenopentines, their process of preparation and their use” (priority 1987, dated 1989).

The subject of one series is NMRI-Mäuse. It is filed as in vivo. The conditions noted are these: i. p., without DAc-SP5. An excerpt: Der Einfluß von DAc-SP5 und immunsuppressiv wirkenden Verbindungen auf die Antigen-spezifische IgM-Antwort bei Mäusen wurde untersucht. Die erhaltenen Ergebnisse sind in den Fig.1 und 2 dargestellt.
DAc-SP5 rekonstituiert bereits durch wenige aufeinanderfolgende Applikationen die chemisch induzierts Suppression der humoralen Immunantwort.

In a further series the test system is männlichen Balb/c-Mäusen. To be noted: in vivo.
A further series concerns AB/Bln.-Mäuse. Description: Antibody formation against sheep erythrocytes (Jerne plaque test) after sublethal X-ray irradiation. The conditions noted are these: 600 c Gy; 10 or 50 µg i.p. every second day; untreated irradiated animals 48 days. It counts as in vivo. An excerpt: N^ε-MAc-SP5 (Sequenz 32 bis 36 des Milzhormons Splenin) hat die gleichen bzw. ähnliche immunbiologische Wirkungen wie das Gesamtmolekül Splenin. […] Funktionstüchtige T-Helferlymphocyten stimulieren die Antikörperbildung. Zum Nachweis einer Erhöhung der Antikörper-Bildung durch N^ε-MAc-SP5 wurde ein relevantes tierexperimentelles Modell gewählt: AB/Bln.-Mäuse wurden mit Röntgenstrahlen subletal bestrahlt und danach mit bzw. ohne N^ε-MAc-SP5 therapiert. Gleichzeitig erfolgte die Immunisierung der Tiere mit Schafserythrocyten. Da subletal bestrahlte Tiere die Fähigkeit verlieren, quantitativ ausreichend Antikörper zu produzieren, ist eine vermehrte Bildung von Antikörpern gegen Schafserythrocyten bei den mit N^ε-MAc-SP5 behandelten Tieren ein Maß für die Regeneration des Immunsystems durch N^ε-MAc-SP5. Mit N^ε-MAc-SP5 behandelte Tiere konnten bereits nach 34 Tagen Antikörper in gleicher Menge wie unbestrahlte Kontrolltiere bilden. Im Vergleich dazu waren nicht mit N^ε-MAc-SP5 behandelte Tiere dazu erst 48 Tage nach der einmaligen Röntgenbestrahlung befähigt. […]

In series [1] the test system is T4-Antigenen auf der Oberfläche menschlicher Lymphocyten. In words: Increase of T4 antigens on the surface of human lymphocytes of SLE patients in vitro (monoclonal antibodies). It counts as cell-based, Mensch. An excerpt:
N^ε-MAc-SP5 (Sequenz 32 bis 36 des Milzhormons Splenin) hat die gleichen bzw. ähnliche immunbiologische Wirkungen wie das Gesamtmolekül Splenin. […] Funktionstüchtige T-Helferlymphocyten stimulieren die Antikörperbildung. Zum Nachweis einer Erhöhung der Antikörper-Bildung durch N^ε-MAc-SP5 wurde ein relevantes tierexperimentelles Modell gewählt: AB/Bln.-Mäuse wurden mit Röntgenstrahlen subletal bestrahlt und danach mit bzw. ohne N^ε-MAc-SP5 therapiert. Gleichzeitig erfolgte die Immunisierung der Tiere mit Schafserythrocyten. Da subletal bestrahlte Tiere die Fähigkeit verlieren, quantitativ ausreichend Antikörper zu produzieren, ist eine vermehrte Bildung von Antikörpern gegen Schafserythrocyten bei den mit N^ε-MAc-SP5 behandelten Tieren ein Maß für die Regeneration des Immunsystems durch N^ε-MAc-SP5. Mit N^ε-MAc-SP5 behandelte Tiere konnten bereits nach 34 Tagen Antikörper in gleicher Menge wie unbestrahlte Kontrolltiere bilden. Im Vergleich dazu waren nicht mit N^ε-MAc-SP5 behandelte Tiere dazu erst 48 Tage nach der einmaligen Röntgenbestrahlung befähigt.
Funktionstüchtige (reife) T-Helferlymphocyten besitzen auf ihrer Oberfläche T4-Antigene, T-Suppressorlymphocyten T8-Antigene. Bei Patienten mit Systemischem Lupus Erythematodes (SLE) wurde mittels monoklonaler Antikörper ein verminderter Gehalt von T4-Antigenen auf der Lymphocytenoberfläche bestimmt. […]

In series [2] the test system is Lymphocyten der SLE-Patienten. Description: 3H-thymidine incorporation of lymphocytes of SLE patients. It is filed as cell-based, Mensch. The conditions noted are these: after contact with N^ε-MAc-SP5; n = 5; no significant deviation from no contact (t-test). An excerpt: T4-Antigene nehmen zu, wenn sich T4-Zellen vermehren bzw., wenn die Antigene vermehrt auf ihrer Oberfläche exprimiert werden. Die Untersuchungen ergaben, daß die Lymphocyten der SLE-Patienten nach Kontakt mit N^ε-MAc-SP5 keine erhöhten ³H-Thymidineinbauraten aufwiesen (910 ± 180 Impulse je Minute ohne N^ε-MAc-SP-5-Kontakt/820 ± 210 Impulse je Minute nach Kontakt mit N^ε-MAc-SP5; n = 5, keine signifikante Abweichung im t-Test). Es ist daher anzunehmen, daß die Zunahme der T4-Antigene nicht durch eine Vermehrung von T4-Zellen zustandekommt, sondern Folge einer strukturellen Veränderung der T-Zelloberfläche, möglicherweise identisch mit einem "Reifeprozeß" der Zelle, ist.

Entries after “also recorded” stand apart in the source; their conditions may differ. Where two headings read alike, the source gives them in different places.

Take `O=P1(N(CCCl)CCCl)NCCCO1` (centres unmarked) [Cyclophosphamid]: the “Antigen-spezifischen IgM-Antwort” value in the series on NMRI-Mäuse (single dose 7,2 mg/Tier) is reported as “nahezu vollständige Suppression”.

Consider `C[C@@H]1C[C@H]2[C@@H]3CCC4=CC(=O)C=C[C@]4(C)[C@@]3(F)[C@@H](O)C[C@]2(C)[C@@]1(O)C(=O)CO` [Dexamethason], for which the “Antigen-spezifischen IgM-Antwort” value with NMRI-Mäuse (0,2 mg/Tier or 0,08 mg/Tier) is on record as “Reduktion”.

Regarding `CCO` [Ethanol], in the series on männlichen Balb/c-Mäusen, the “% phagocytierende Peritonealzellen” value is reported as 29,0±1,7%, the “Milzmasse (mg)” value is reported as 60,0±3,2 mg, the Phagocytoseindex is recorded as 3,0±0,08 and the “Plaque-bildende Zellen der Milz pro 10⁶ Zellen (Jerne-Plaquetest)” value was 61,3±3,8 pro 10⁶ Zellen. The “Thymusmasse (mg)” value in the series with männlichen Balb/c-Mäusen is 15,0±2,6 mg.

As for “Arginyl(N^ε-acetyl-lysyl)glutamylvalyl)tyrpsin [N^ε-MAc-SP5]”, the “time after X-ray irradiation until Antikörper in gleicher Menge wie unbestrahlte Kontrolltiere” value with AB/Bln.-Mäuse turned out to be 34 Tage. Also, the “TB-Antigene (Oberflächenantigene auf T-Suppressorlymphocyten bzw. cytotoxischen T-Lymphocyten)” value in series [1] (lymphocytes of SLE patients after contact with N^ε-MAc-SP5) is recorded as “veränderten sich dagegen quantitativ nicht”. Besides, the “Anzahl von T4-Antigenen” value in series [1] (lymphocytes of SLE patients before therapy, 2 h incubation with N^ε-MAc-SP5) is reported as “quantitative Zunahme von T4-Antigenen; also recorded: permanent erhöhte Anzahl von T4-Antigenen”. In series [2], the ³H-Thymidineinbauraten turned out to be 820 ± 210 Impulse je Minute.
